In US20170156315A1, “METHODS AND COMPOSITIONS OF GRANULE FORMULATIONS” (AgroFresh Inc., priority 2010, published 2017):
“And” between values parts separate entries of the source, which are not always exact repeats. Equal values may be shown once.

Test system: rice plants
Test: Treatment of rice plants in open fields, yield
Format: in vivo
Conditions: rice field trial, single application of 50 g a.i./hectare 1-MCP with sample 7-3
Description: Assessment of Improvement to Crop Yield—Each treated plot is compared to an appropriate untreated control plot. The outcome is reported as “DY %” (Delta Yield Percent), which is defined as follows:
where YT=yield of the treated plot, and where YU=yield of the untreated plot. For example, DY of 10% means the treated plot has yield that is 10% higher than the untreated plot. Negative Delta Yield means that the treated rice has lower yield than the untreated crop.
Granule formulations of samples 7-3 and 7-4 are used to treat rice plants in open fields. Typical amount of 1-MCP treated range from 10 g active ingredient (a.i.)/hectare (or 4 g a.i./acre) to 100 g a.i./hectare (or 40 g a.i/acre).
Optimum phonological stages of the rice plants range from maximum tillering through grain filling (for example at least one of: meiosis, complete open of flower, and grain filling). Typically only a single treatment of 1-MCP is performed before harvest, but multiple treatments of 1-MCP before harvest can also be performed. Treatment(s) of 1-MCP on rice plants show yield increase ranging from 14% to 28%, depending on the amount of 1-MCP and stage of treatment(s). Data of a field trial using single application of 50 g a.i./hectare 1-MCP with sample 7-3 (a granule formulation containing 1% 1-MCP) are shown in Table 9

## CC1=CC1 [Sample 1-MCP, 1-methylcyclopropene]
Individual treatments 8-1 to 8-4
  Yield (kg/ha): 7340 kg/ha and 7450 kg/ha and 7865 kg/ha and 7715 kg/ha
Mean of treatments 8-1 to 8-4
  Mean (kg/ha): 7592.5 kg/ha
